Source: patent publication US8808702B2, “Sulfide, sulfoxide and sulfone chalcone analogues, derivatives thereof and therapeutic uses thereof” (Temple University-of the Commonwealth System of Higher …, priority 2006, dated 2014)
Where two headings read alike, the source gives them in different places.

Experiments:
[1] = tested on: K562 (chronic myelogenous leukaemia); test: Effect of compounds on tumor cell lines (assay of Latham et al.), K562; format: cell-based; conditions: K562 cells, read-out: K 562 potency (IC50)
Description: (§1) The effect of the compounds of the invention on tumor cells was determined by the assay described by Latham et al., Oncogene 12:827-837 (1996). Tumor cells K562 (chronic myelogenous leukaemia) or DU145 (prostate cancer) were plated in 12-well dishes at a cell density of 2.5×10^4 cells well. The plated cells were treated 24 hours later with a compound of the invention dissolved in DMSO at multiple concentrations ranging from 1 μM to 100 μM. The plates were examined 96 hours later under an inverted microscope, Olympus CK-2 using an 10× objective, and compound activity was noted by physical observation. When necessary, the total number of viable cells was determined by trypsinizing the wells and counting the number of viable cells, as determined by trypan blue exclusion, using a hemacytometer.
(§2) The representative compounds listed in Tables 1-5 are shown by way of illustration, and are not intended to limit the scope of the invention. The compounds are prepared and tested by methods based on those described above, except that the compound of Table 5 was dissolved in DMSO at multiple concentrations ranging from 0.1 μM to 100 μM

[2] = tested on: DU145 (prostate cancer); test: Effect of compounds on tumor cell lines (assay of Latham et al.), DU145; format: cell-based; conditions: DU145 cells, read-out: DU 145 potency (IC50)
Description: as §1, §2

[3] = 96 hours after treatment, 1 μM to 100 μM
[4] = Table 1, examined 96 hours after treatment, 1 μM to 100 μM in DMSO
[5] = Homo sapiens, Table 4, examined 96 hours after treatment, 1 μM to 100 μM in DMSO
[6] = Homo sapiens, DU-145, Table 4, examined 96 hours after treatment, 1 μM to 100 μM in DMSO

Structure (SMILES)	IC50 [1, 3] [µM]	IC50 [2, 3] [µM]	IC50 [1, 4] [µM]	IC50 [2, 4] [µM]	other results
Cc1ccc(CSC(=Cc2ccc(O)cc2)C(=O)c2ccc(Cl)cc2)cc1 [Example 292]	1 to 10	10 to 25			
CN(C)c1ccc(/C=C(/SCc2ccc(Br)cc2)C(=O)c2ccc(C(=O)O)cc2)cc1 [Example 164]	25 to 50	50 to 100			
O=C(C(=Cc1ccc[nH]1)SCc1ccc(Cl)cc1)c1ccc(Cl)cc1 [Example 201]	10 to 25	25 to 50			
Cc1ccc(SC(=Cc2ccc(-c3ccccc3)cc2)C(=O)c2ccc(Br)cc2)cc1 [Example 110]			25 to 50	50 to 100	
CSc1ccc(/C=C(\C(=O)c2ccc(Br)cc2)S(=O)(=O)Cc2ccc(C)cc2)cc1 [Example 436]					IC50 [1, 5]: 10 to 25 µM; IC50 [2, 6]: 10 to 25 µM
Cc1ccc(SC(=Cc2ccc(Oc3ccccc3)cc2)C(=O)c2ccc(Br)cc2)cc1 [Example 103]			10 to 25	1 to 10	
Cc1ccsc1C=C(SCc1ccc(F)cc1)C(=O)c1ccc(Br)cc1 [Example 246]	> 100	50 to 100			
O=C(C(=Cc1ccc(F)cc1)SCc1ccc(Br)cc1)c1ccc(SCc2ccc(Br)cc2)c([N+](=O)[O-])c1 [Example 319]	> 100	> 100			
O=C(C(=Cc1ccc(O)c(C(=O)O)c1)SCc1ccc(Br)cc1)c1ccc(Br)cc1 [Example 151]	25 to 50	10 to 25			
CN(C)c1ccc(C=C(Sc2ccc(Br)cc2)C(=O)c2ccc(Cl)cc2)cc1 [Example 49]			> 100	> 100	
CCOc1ccc(C=C(SCc2ccc(F)cc2)C(=O)c2ccc(Br)cc2)cc1OC [Example 257]	1 to 10	50 to 100			
O=C(O)c1ccc(C(=O)C(=Cc2ccc(O)c(Br)c2)SCc2ccc(Br)cc2)cc1 [Example 150]	25 to 50	25 to 50			
CN1CCN(CCCNC(=O)c2ccc(C(=O)C(=Cc3ccc(F)c([N+](=O)[O-])c3)SCc3ccc(Br)cc3)cc2)CC1 [Example 314]	1 to 10	1 to 10			
O=C(C(=Cc1ccc(O)cc1)SCc1ccc(Cl)c(Cl)c1)c1ccc(Cl)cc1 [Example 144]	1 to 10	1 to 10			
Cc1ccc(SC(=Cc2ccc(N(C)C)cc2)C(=O)c2ccc(Br)cc2)cc1 [Example 101]			50 to 100	> 100	
O=C(O)c1ccc(C(=O)/C(=C\c2ccc(F)c([N+](=O)[O-])c2)SCc2ccc(Br)cc2)cc1 [Example 172]	1 to 10	1 to 10			
O=C(C(=Cc1ccc(O)cc1O)Sc1ccccc1Br)c1ccc(Br)cc1 [Example 6]			50 to 100	50 to 100	
COc1ccc(C(=O)C(=Cc2ccc(Br)cc2)Sc2ccc(F)cc2)cc1 [Example 57]			> 100	> 100	
CSc1ccc(/C=C(/SCc2ccc(Br)cc2)C(=O)c2ccc(C(=O)O)cc2)cc1 [Example 188]	25 to 50	25 to 50			
CN(C)c1ccc(C=C(SCc2ccc(F)cc2)C(=O)c2ccc(C(=O)O)cc2)cc1 [Example 250]	10 to 25	25 to 50			

Structure (SMILES)	IC50 [1, 3] [µM]	IC50 [2, 3] [µM]	IC50 [1, 4] [µM]	IC50 [2, 4] [µM]	other results
CCOc1ccc(C=C(Sc2ccc(C)cc2)C(=O)c2ccc(Cl)cc2)cc1OC [Example 93]			10 to 25	25 to 50	
O=C(C(=Cc1c(O)cc(O)cc1O)Sc1ccccc1Br)c1ccc(Cl)cc1 [Example 5]			> 100	> 100	
Cc1ccc(CSC(=Cc2cc(Cl)cc(Cl)c2)C(=O)c2ccc(Cl)cc2)cc1 [Example 281]	10 to 25	10 to 25			
O=C(C(=Cc1c(O)cc(O)cc1O)Sc1ccc(Br)cc1)c1ccc(Cl)cc1 [Example 13]			50 to 100	25 to 50	
O=C(C(=Cc1c[nH]c2ccccc12)SCc1ccc(Cl)cc1Cl)c1ccc(Cl)cc1 [Example 118]	10 to 25	10 to 25			
O=C(C(=Cc1ccc(C(=O)N2CCN(CCO)CC2)cc1)SCc1ccc(F)cc1)c1ccc(F)c([N+](=O)[O-])c1 [Example 331]	≤ 1	1 to 10			
O=C(O)c1ccc(C(=O)C(=Cc2ccccc2F)SCc2ccc(Br)cc2)cc1 [Example 306]	10 to 25	10 to 25			
O=C(C(=Cc1cccnc1)SCc1ccc(Cl)cc1)c1ccc(Br)cc1 [Example 321]	1 to 10	1 to 10			
O=C(C(=Cc1ccc(F)c([N+](=O)[O-])c1)SCc1ccc(Br)cc1)c1ccc(Cl)c([N+](=O)[O-])c1 [Example 317]	> 100	> 100			
O=C(O)c1ccc(C(=O)/C(=C\c2ccc(Cl)c([N+](=O)[O-])c2)S(=O)(=O)Cc2ccc(Br)cc2)cc1 [Example 372]					IC50 [1, 5]: 25 to 50 µM; IC50 [2, 6]: 25 to 50 µM
CN(C)c1ccc(C=C(SCc2ccc(Cl)cc2)C(=O)c2ccc(Br)cc2)cc1 [Example 208]	1 to 10	10 to 25			
COc1ccc(C(=O)C(=Cc2c(OC)cc(OC)cc2OC)Sc2ccc(F)cc2)cc1 [Example 54]			50 to 100	50 to 100	
Cc1ccc(SC(=Cc2cc([N+](=O)[O-])ccc2F)C(=O)c2ccc(Cl)cc2)cc1 [Example 74]			1 to 10	10 to 25	
CSc1ccc(C=C(Sc2ccc(Br)cc2)C(=O)c2ccc(Cl)cc2)cc1 [Example 46]			1 to 10	1 to 10	
COc1ccc(/C=C(/SCc2ccc(OC)cc2)C(=O)c2ccc(Cl)cc2)cc1 [Example 346]	1 to 10	10 to 25			
O=C(/C(=C\c1ccc(F)c([N+](=O)[O-])c1)SCc1ccc(F)cc1)c1ccccc1 [Example 344]	≤ 1	1 to 10			
O=C(O)c1ccc(C(=O)/C(=C\c2ccc(Cl)c([N+](=O)[O-])c2)SCc2ccc(C(F)(F)F)cc2)cc1 [Example 350]	1 to 10	1 to 10			
O=C(/C(=C\c1ccc(F)c([N+](=O)[O-])c1)SCc1ccc(F)cc1)c1ccc(F)cc1 [Example 341]	≤ 1	1 to 10			
O=C(C(=Cc1ccc(O)c([N+](=O)[O-])c1)SCc1ccccc1Cl)c1ccc(Cl)cc1 [Example 132]	10 to 25	10 to 25			
CN1CCN(CCNC(=O)c2ccc(C(=O)C(=Cc3ccc(F)c([N+](=O)[O-])c3)SCc3ccc(Br)cc3)cc2)CC1 [Example 311]	≤ 1	1 to 10			

Structure (SMILES)	IC50 [1, 3] [µM]	IC50 [2, 3] [µM]	IC50 [1, 4] [µM]	IC50 [2, 4] [µM]	other results
COc1ccc(C=C(SCc2ccc(Cl)cc2)C(=O)c2ccc(Cl)cc2)cc1 [Example 228]	1 to 10	10 to 25			
O=C(C(=Cc1ccc(Cl)cc1Cl)SCc1ccc(Cl)cc1)c1ccc(Cl)cc1 [Example 195]	25 to 50	25 to 50			
Cc1ccc(SC(=Cc2c(O)cc(O)cc2O)C(=O)c2ccc(Br)cc2)cc1 [Example 67]			50 to 100	> 100	
O=C(O)c1ccc(C(=O)C(=Cc2ccc(Br)c([N+](=O)[O-])c2)SCc2ccc(Cl)cc2)cc1 [Example 213]	≤ 1	1 to 10			
Cc1ccc(C=C(SCc2ccc(Cl)cc2Cl)C(=O)c2ccc(Cl)cc2)s1 [Example 124]	50 to 100	50 to 100			
O=C(NCCN1CCOCC1)c1ccc(C(=O)C(=Cc2ccc(F)c([N+](=O)[O-])c2)SCc2ccc(Br)cc2)cc1 [Example 312]	1 to 10	1 to 10			
NS(=O)(=O)c1ccc(C(=O)/C(=C\c2ccc(F)c([N+](=O)[O-])c2)SCc2ccc(F)cc2)cc1 [Example 343]	1 to 10	1 to 10			
O=C(C(=Cc1ccc(F)cc1F)Sc1ccc(Br)cc1)c1ccc(Br)cc1 [Example 17]			1 to 10	1 to 10	
COc1ccc2[nH]cc(C=C(Sc3ccc(Br)cc3)C(=O)c3ccc(Br)cc3)c2c1 [Example 52]			1 to 10	1 to 10	
O=C(C(=Cc1c[nH]c2ccccc12)Sc1ccc(Br)cc1)c1ccc(Br)cc1 [Example 31]			1 to 10	1 to 10	
O=C(C(=Cc1cccc(Cl)c1Cl)SCc1ccc(Cl)cc1Cl)c1ccc(Cl)cc1 [Example 114]	1 to 10	1 to 10			
COc1ccc(SC(=Cc2ccc(Br)cc2)C(=O)c2ccc(Br)cc2)cc1 [Example 63]			1 to 10	25 to 50	
O=C(C(=Cc1ccccc1F)Sc1ccc(Br)cc1)c1ccc(Cl)cc1 [Example 24]			1 to 10	10 to 25	
Cc1ccsc1C=C(SCc1ccc(Cl)cc1)C(=O)c1ccc(Cl)cc1 [Example 206]	50 to 100	50 to 100			
O=C(C(=Cc1ccc(Cl)cc1)SCc1ccc(Cl)cc1)c1ccc(Cl)cc1 [Example 324]	1 to 10	10 to 25			
O=C(C(=Cc1ccc(Cl)cc1)Sc1ccc(Cl)cc1)c1ccc(Cl)cc1 [Example 53]			1 to 10	1 to 10	
O=C(/C(=C\c1ccc(Cl)cc1)SCc1ccc(Br)cc1)c1ccccc1Cl [Example 169]	1 to 10	25 to 50			
O=C(C(=Cc1c(O)cc(O)cc1O)SCc1ccc(Cl)cc1Cl)c1ccc(Cl)cc1 [Example 115]	> 100	25 to 50			
